From patent US7786141B2 (Vertex Pharmaceuticals Incorporated, priority 2004, dated 2010)

Assays:
M4 muscarinic receptor = molecular target: T1, M4 muscarinic receptor (Homo sapiens, UniProt P08173); assay: Functional mobilization of intracellular calcium (FLIPR) in M4-CHO cells; format: cell-based; conditions: for Emax: 100% efficacy is the maximum response obtained with the Carbachol control; for M4 Activity: M4 receptor, calcium mobilization (FLIPR); for EC50: CHO cells expressing M4, calcium mobilization
T1 construct: expressed in transfected cells; host or cells: CHO (M4-CHO)
T1 sequence (P08173 1-479): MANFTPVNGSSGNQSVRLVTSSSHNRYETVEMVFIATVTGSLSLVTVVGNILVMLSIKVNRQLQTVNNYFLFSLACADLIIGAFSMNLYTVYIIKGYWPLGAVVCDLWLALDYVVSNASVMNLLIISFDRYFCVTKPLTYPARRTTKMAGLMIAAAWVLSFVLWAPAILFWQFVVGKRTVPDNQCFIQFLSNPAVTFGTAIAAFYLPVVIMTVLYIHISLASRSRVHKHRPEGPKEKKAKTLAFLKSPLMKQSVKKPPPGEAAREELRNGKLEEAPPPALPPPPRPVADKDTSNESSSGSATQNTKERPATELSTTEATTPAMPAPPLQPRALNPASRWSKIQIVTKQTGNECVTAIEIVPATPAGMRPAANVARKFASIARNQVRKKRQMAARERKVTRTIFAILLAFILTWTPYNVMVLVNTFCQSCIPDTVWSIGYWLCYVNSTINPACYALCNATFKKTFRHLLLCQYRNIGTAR
Method in brief: (§1)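 Measured via Fluo-3 fluorescence on a FLIPR, CHO cells with either muscarinic subtype received compound in 0.5% DMSO. Antagonism was assessed after 15 min pre-incubation followed by carbachol at each subtype's EC80; agonism from compound addition alone.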

M1 muscarinic receptor = molecular target: T2, M1 muscarinic receptor (Homo sapiens, UniProt P11229); assay: Functional mobilization of intracellular calcium (FLIPR) in M1-CHO cells; format: cell-based; conditions: for Emax: 100% efficacy is the maximum response obtained with the Carbachol control; for M1 Activity: M1 receptor, calcium mobilization (FLIPR); for EC50: CHO cells expressing M1, calcium mobilization
T2 construct: expressed in transfected cells; host or cells: CHO (M1-CHO)
T2 sequence (P11229 1-460): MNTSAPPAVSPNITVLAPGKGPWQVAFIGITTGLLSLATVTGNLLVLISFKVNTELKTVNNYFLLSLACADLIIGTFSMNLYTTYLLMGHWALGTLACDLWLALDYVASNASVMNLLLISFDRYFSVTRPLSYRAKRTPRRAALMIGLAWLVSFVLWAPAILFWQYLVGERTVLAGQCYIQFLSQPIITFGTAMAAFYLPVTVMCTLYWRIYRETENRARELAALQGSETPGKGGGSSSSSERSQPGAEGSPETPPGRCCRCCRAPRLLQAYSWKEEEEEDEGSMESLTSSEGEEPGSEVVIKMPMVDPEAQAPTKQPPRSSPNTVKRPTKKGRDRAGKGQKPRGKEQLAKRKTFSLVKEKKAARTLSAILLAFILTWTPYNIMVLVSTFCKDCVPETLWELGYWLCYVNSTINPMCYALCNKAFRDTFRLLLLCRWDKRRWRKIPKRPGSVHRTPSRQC
Method in brief: as §1

Compound	Emax (M4 muscarinic receptor; Table 4)	M4 Activity (M4 muscarinic receptor; Table 4)	Emax (M1 muscarinic receptor; Table 4)	M1 Activity (M1 muscarinic receptor; Table 4)	Emax (M4 muscarinic receptor; Table 5)	EC50 (M4 muscarinic receptor; Table 5)	Emax (M1 muscarinic receptor; Table 5)	EC50 (M1 muscarinic receptor; Table 5)
CC(=O)NC1CCC2(CCN(CCC3CCN(C(=O)N(C)C)CC3)CC2)c2ccccc21 (centres unmarked) [compound 999]	< 25%	x (activity was measured to be greater than 5.0 μM)	25 to 100%	xxx (activity was measured to be less than 2.0 μM)	–	–	–	–
CCC(C)C(=O)N1CCC(N2CCC3(CC2)CN(C(C)=O)c2ccccc23)CC1 (centres unmarked) [compound 1000]	25 to 100%	x (activity was measured to be greater than 5.0 μM)	25 to 100%	x (activity was measured to be greater than 5.0 μM)	–	–	–	–
COc1cc2c(cc1OC)C1(CCN([C@H]3CC4CC[C@@H]3C4)CC1)C[C@@H]2NC(C)=O [compound 1002]	< 25%	x (activity was measured to be greater than 5.0 μM)	< 25%	x (activity was measured to be greater than 5.0 μM)	–	–	–	–
CCOC(=O)N1CCC(CN2CCCC3(CC2)CN(C(C)=O)c2ccc(F)cc23)CC1 (centres unmarked) [compound 1003]	25 to 100%	xxx (activity was measured to be less than 2.0 μM)	25 to 100%	xxx (activity was measured to be less than 2.0 μM)	–	–	–	–
CCOC(=O)N1CCC(N2CCC3(CC2)CN(C(=O)[C@@H](O)CC)c2ccc(F)cc23)CC1 [compound 1004]	25 to 100%	xxx (activity was measured to be less than 2.0 μM)	25 to 100%	xxx (activity was measured to be less than 2.0 μM)	–	–	–	–
CN(C)C(=O)N[C@H]1CC2(CCN([C@@H]3CC4CC[C@@H]3C4)CC2)c2ccccc21 [compound 1005]	25 to 100%	xxx (activity was measured to be less than 2.0 μM)	< 25%	x (activity was measured to be greater than 5.0 μM)	–	–	–	–
CN(C)C(=O)N1CC2(CCN(C3CCN(C(=O)[C@@H]4CCCO4)CC3)CC2)c2cc(F)ccc21 [compound 1006]	< 25%	x (activity was measured to be greater than 5.0 μM)	25 to 100%	x (activity was measured to be greater than 5.0 μM)	–	–	–	–
CC(=O)CN1CC2(CCN(C3CCCCCC3)CC2)c2cc(F)ccc21 [compound 1009]	25 to 100%	xxx (activity was measured to be less than 2.0 μM)	25 to 100%	xxx (activity was measured to be less than 2.0 μM)	–	–	–	–
CN(C)C(=O)NC1CCC2(CCN(CCC3CC4CCC3C4)CC2)c2ccccc21 (centres unmarked) [compound 1010]	< 25%	x (activity was measured to be greater than 5.0 μM)	< 25%	x (activity was measured to be greater than 5.0 μM)	–	–	–	–
COCCOC(=O)N1CCC(N2CCC3(CC2)CN(C(C)=O)c2ccc(F)cc23)C1 (centres unmarked) [compound 1012]	< 25%	x (activity was measured to be greater than 5.0 μM)	< 25%	x (activity was measured to be greater than 5.0 μM)	–	–	–	–
C#CCCOC(=O)N1CC[C@@H](CN2CCC3(CC2)CN(C(C)=O)c2ccccc23)C1 [compound 1013]	< 25%	x (activity was measured to be greater than 5.0 μM)	< 25%	x (activity was measured to be greater than 5.0 μM)	–	–	–	–
CCOC(=O)N1C2CCC1CC(N1CCC3(CC[C@H](N4CCCC4=O)c4ccccc43)CC1)C2 (some centres unmarked) [compound 1014]	25 to 100%	xxx (activity was measured to be less than 2.0 μM)	25 to 100%	xxx (activity was measured to be less than 2.0 μM)	–	–	–	–
CC(=O)N1CC2(CCN(C[C@@H]3CCN(C(=O)OCC(F)F)C3)CC2)c2ccccc21 [compound 1015]	< 25%	xxx (activity was measured to be less than 2.0 μM)	25 to 100%	xx (activity was measured to be between 2.0 μM and 5.0 μM)	–	–	–	–
CCCC(=O)N[C@H]1CC2(CCN(C[C@@H]3C[C@H]4C=CC3C4)CC2)c2ccccc21 [compound 1016]	25 to 100%	xxx (activity was measured to be less than 2.0 μM)	25 to 100%	xxx (activity was measured to be less than 2.0 μM)	–	–	–	–
CCCC(=O)N[C@H]1CC2(CCN([C@@H]3CC4CC[C@@H]3C4)CC2)c2ccccc21 [compound 1017]	25 to 100%	xxx (activity was measured to be less than 2.0 μM)	25 to 100%	x (activity was measured to be greater than 5.0 μM)	–	–	–	–
CC(=O)N1CC2(CCN(C3CCN(c4nccs4)CC3)CC2)c2cc(F)ccc21 [compound 1019]	–	–	–	–	25 to 100%	< 2000 nM	25 to 100%	< 2000 nM

Compound	Emax (M4 muscarinic receptor; Table 4)	M4 Activity (M4 muscarinic receptor; Table 4)	Emax (M1 muscarinic receptor; Table 4)	M1 Activity (M1 muscarinic receptor; Table 4)	Emax (M4 muscarinic receptor; Table 5)	EC50 (M4 muscarinic receptor; Table 5)	Emax (M1 muscarinic receptor; Table 5)	EC50 (M1 muscarinic receptor; Table 5)
CC(=O)N1CC2(CCN(C3CCC4(CC3)CC(C)=NO4)CC2)c2cc(F)ccc21 (centres unmarked) [compound 1020]	–	–	–	–	< 25%	2000 to 10000 nM	25 to 100%	2000 to 10000 nM
CN(C)C(=O)N1CC2(CCN(C3CCN(c4ccccc4F)CC3)CC2)c2cc(F)ccc21 [compound 1024]	–	–	–	–	< 25%	2000 to 10000 nM	25 to 100%	2000 to 10000 nM
CN(C)C(=O)N1CC2(CCN(C3CCN(c4cccc(F)c4)CC3)CC2)c2cc(F)ccc21 [compound 1025]	–	–	–	–	25 to 100%	< 2000 nM	25 to 100%	2000 to 10000 nM
CN(C)C(=O)N1CC2(CCN(C3CCN(c4ccc(F)cc4)CC3)CC2)c2cc(F)ccc21 [compound 1026]	–	–	–	–	< 25%	< 2000 nM	25 to 100%	2000 to 10000 nM
COc1ccccc1N1CCC(N2CCC3(CC2)CN(C(=O)N(C)C)c2ccc(F)cc23)CC1 [compound 1027]	–	–	–	–	25 to 100%	2000 to 10000 nM	25 to 100%	2000 to 10000 nM
COc1cccc(N2CCC(N3CCC4(CC3)CN(C(=O)N(C)C)c3ccc(F)cc34)CC2)c1 [compound 1028]	–	–	–	–	25 to 100%	< 2000 nM	25 to 100%	2000 to 10000 nM
COc1ccc(N2CCC(N3CCC4(CC3)CN(C(=O)N(C)C)c3ccc(F)cc34)CC2)cc1 [compound 1029]	–	–	–	–	25 to 100%	2000 to 10000 nM	25 to 100%	2000 to 10000 nM
COc1ccc(F)cc1N1CCC(N2CCC3(CC2)CN(C(=O)N(C)C)c2ccc(F)cc23)CC1 [compound 1030]	–	–	–	–	25 to 100%	2000 to 10000 nM	25 to 100%	2000 to 10000 nM
CN(C)C(=O)N1CC2(CCN(C3CCN(c4cnccn4)CC3)CC2)c2cc(F)ccc21 [compound 1031]	–	–	–	–	25 to 100%	< 2000 nM	25 to 100%	< 2000 nM
CN(C)C(=O)N1CC2(CCN(C3CCN(c4ncccn4)CC3)CC2)c2cc(F)ccc21 [compound 1032]	–	–	–	–	25 to 100%	< 2000 nM	25 to 100%	2000 to 10000 nM
CN(C)C(=O)N1CC2(CCN(C3CCN(c4cncnc4)CC3)CC2)c2cc(F)ccc21 [compound 1033]	–	–	–	–	25 to 100%	< 2000 nM	25 to 100%	2000 to 10000 nM
CN(C)C(=O)N1CC2(CCN(C3CCN(c4nccs4)CC3)CC2)c2cc(F)ccc21 [compound 1034]	–	–	–	–	25 to 100%	< 2000 nM	25 to 100%	< 2000 nM
CN(C)C(=O)N1CC2(CCN(C[C@H]3CCN(c4cnccn4)C3)CC2)c2cc(F)ccc21 [compound 1035]	–	–	–	–	25 to 100%	< 2000 nM	> 100%	< 2000 nM
CN(C)C(=O)N1CC2(CCN(C[C@@H]3CCN(c4cnccn4)C3)CC2)c2cc(F)ccc21 [compound 1036]	–	–	–	–	25 to 100%	< 2000 nM	25 to 100%	< 2000 nM
CN(C)C(=O)N1CC2(CCN(C[C@H]3CCN(c4nccs4)C3)CC2)c2cc(F)ccc21 [compound 1037]	–	–	–	–	25 to 100%	< 2000 nM	25 to 100%	2000 to 10000 nM
CN(C)C(=O)N1CC2(CCN(C[C@@H]3CCN(c4nccs4)C3)CC2)c2cc(F)ccc21 [compound 1038]	–	–	–	–	25 to 100%	< 2000 nM	25 to 100%	2000 to 10000 nM
